Measurements taken from US9228015B2, “Nogo receptor antagonists and methods of increasing neurite outgrowth” (Biogen Idec MA Inc., priority 2006, dated 2016).

How the values were obtained:
[1] = tested on: chick dorsal root ganglion neurons, myelin-induced neurite outgrowth inhibition; test: Neurite outgrowth of embryonic day 13 chick DRG neurons on myelin (Example 29); format: cell-based; conditions: 8 μM NgR(310)ecto-Fc; MP 10 μg/nl as printed
Experimental: In investigating combined treatment with methyprednisolone (MP) and NgR(310)ecto-Fc for spinal cord injury (SCI), we sought to verify that these reagents have independent mechanisms of action. Briefly, myelin was dried overnight in poly-L-lysine-precoated plates (Becton Dickinson, Bedford, Mass., USA) at 80 or 400 ng/well (2.5 and 12.7 ng/mm^2, respectively). Wells were then coated with 10 µg/ml laminin (Calbiochem, La Jolla, Calif., USA) for 1 hour at foom temperature (22-24 C). Embryonic day 13 chick dorsal root ganglion neurons were dissociated and plated for 6-8 hours as previously described (GrandPre et al., 2000; Fournier et al., 2001). Neurons were treated with 8 μM NgR(310)ecto-Fc in the presence or absence of 10 μg/nl MP (Pharmacia, Kalamazoo, Mich., USA) for the entire outgrowth period. Neurons were then fixed and stained with βIII tubulin antibody (Covance, Princeton, N.J., USA) and neurite outgrowth was quantified using an automated cellular imaging and analysis system (Axon Instrument, Union City, Calif.; USA). Neurite outgrowth per cell was normalized to the average of duplicate control wells for each experiment (n=3). […] These in vitro data support the hypothesis that MP and NgR(310)ecto-Fc will enhance SCI recovery in a sequentially effective manner.

7E11 [2] = test: Epitope mapping: 7E11 binding to protease digest peptides of NgR1; set-up: species or system murine; conditions: trypsin or Asp-N digest, MS analysis
Text: The 7E11 binding site was further analyzed by testing tryptic peptide digests of sNgR310. […] 7E11 bound only a single tryptic digest peptide, providing additional evidence that 7E11 binds to a single epitope on NgR1. Subsequent mass spectroscopy (MS) and sequence analyses identified the bound peptide to be […] (SEQ ID NO: 26).
The […] peptide (SEQ ID NO: 1) was subjected to further mapping analysis. The peptide was digested with trypsin, which yielded two major fragments, […] (SEQ ID NO: 27) and VVDPTT (SEQ ID NO: 28), and the ability of 7E11 to bind them was tested. […] Within this peptide fraction, detailed MS analysis identified several scrambled peptides that also bound 7E11, including peptides with deamination at Asn115 and Gln117, addition of Alanine at 112 or 113, or addition of Serine at 114 (Table 3).
The […] (SEQ ID NO:1) peptide was also digested with the endoprotease Asp-N and 7E11 binding was tested. Endoprotease Asp-N cleaved the peptide into 3 peptide fragments, L, DLS and […] (SEQ ID NO: 36). Of these products, 7E11 bound the […] (SEQ ID NO:36) peptide. Taken together, the trypsin and Asp-N cleavage data further localize the 7E11 binding epitope to the sequence shared between them, DNAQLR (SEQ ID NO: 37).

7E11 [3] = test: 7E11 binding to immobilized point-mutant peptides (MaxiSorp plate, serial dilutions of 7E11); set-up: species or system murine; conditions: 7E11 binding to immobilized peptide
Text: To verify these contact points, several peptides containing point mutations within the […] sequence (SEQ ID NO: 27) were generated and tested for 7E11 binding. The peptides were immobilized on a MaxiSorp™ plate (Nunc™) and serial dilutions of 7E11 were applied. […] The most significant change in EC50 was observed when Arg 119 was mutated to Alanine.

MAG + sNogoR344-Fc = biological target: T1, MAG + sNogoR344-Fc (Rattus norvegicus, UniProt Q99M75, A303T/C287S/C43R/E284G/T53A); test: ELISA: inhibition of MAG binding to sNogoR344-Fc
T1 construct: amino acid residues 26-344 of rat Nogo receptor-1; made in house; CHO (DG44) is described only for sNogoR310-Fc
T1 sequence (Q99M75 26-344 C43R/T53A/E284G/C287S/A303T): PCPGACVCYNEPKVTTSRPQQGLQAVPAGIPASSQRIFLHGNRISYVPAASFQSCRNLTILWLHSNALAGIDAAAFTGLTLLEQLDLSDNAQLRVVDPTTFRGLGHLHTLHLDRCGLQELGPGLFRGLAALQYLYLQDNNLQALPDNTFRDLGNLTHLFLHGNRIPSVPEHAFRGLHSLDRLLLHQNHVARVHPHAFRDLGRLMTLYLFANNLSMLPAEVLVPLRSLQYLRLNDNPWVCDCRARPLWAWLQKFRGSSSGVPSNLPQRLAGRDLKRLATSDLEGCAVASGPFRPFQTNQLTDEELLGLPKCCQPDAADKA
Experimental: (§1) 0.5 μg of a soluble Nogo receptor-1 fusion protein comprising amino acid residues 26-344 of rat Nogo receptor-1 and the hinge and Fc region of the rat IgG1 molecule (sNogoR344-Fc) produced as described below was immobilized on […] of protein-A- or wheatgerm agglutinin-conjugated SPA beads (Amersham Pharmacia Biotech) for 2 hours at 25° C. SPA beads coupled with Fc-sNogoR-1, anti-Nogo receptor-1 mAb and 1 μl ^125I-Nogo66 (Amersham, 2000 Ci/mmol, 1 nM) in […] of the HEPES-buffered incubation medium (10 mM HEPES, pH 7.4, 0.1% bovine serum albumin, 0.1% ovalbumin, 2 mM MgCl2, 2 mM CaCl2 and protease inhibitors) was added to each sample well. After 16 hours, radioactivity was measured in quadruplicate samples using a TopCount® (Packard). IC50 values were calculated from a curve-fit analysis (FIG. 3) (PRISM, GraphPad Software, NJ). In some experiments, we also used AP-ligand conjugates (e.g. AP-Nogo66) and detected binding by monitoring alkaline phosphatase activity. We also assayed the ability of the mAbs to block binding of the ligands MAG-Fc and AP-OM-gp to Nogo receptor-1.
(§2) Monoclonal antibodies 7E11, 5B10, 1H2, 3G5 and 2F7 all inhibited binding of Nogo66, MAG and OM-gp to sNogoR344-Fc. The calculated IC50 for Nogo66 for 7E11 and 1H2 were 400 nM and 60 nM, respectively. The data from ELISAs monitoring mAb-mediated inhibition of binding of the three ligands to Nogo receptor-1 are summarized in Table 6.
(§3) The percent displacement is shown at 30 nM antibody and the EC50 for certain mAbs determined from curve-fit analysis as described. “-” indicates no detectable activity and “ND” indicates not determined.
(§4) We also performed ELISA binding assays using the Fab-phage 141)5.

Nogo66 + sNogoR344-Fc = biological target: T2, Nogo66 + sNogoR344-Fc (Rattus norvegicus, UniProt Q99M75, A303T/C287S/C43R/E284G/T53A); test: ELISA: inhibition of Nogo66 binding to sNogoR344-Fc
T2 construct: amino acid residues 26-344 of rat Nogo receptor-1; made in house
T2 sequence (Q99M75 26-344 C43R/T53A/E284G/C287S/A303T): T1 sequence (Q99M75 26-344 C43R/T53A/E284G/C287S/A303T)
Experimental: as §1, §2, §3, §4

[4] = tested on: DRG neurons, myelin-mediated inhibition of neurite outgrowth; test: Neurite outgrowth assay, P3-4 rat DRG neurons, myelin mixed with test protein (Example 10); format: cell-based; conditions: mixed with CNS myelin, FIGS. 9-11
Experimental: Lab-Tek® culture slides (4 wells) were coated with 0.1 mg/ml poly-D-lysine (Sigma®). CNS myelin alone or mixed with sNogoR310, sNogoR310-Fc fusion protein, mAb 5B10 or control PBS were separately spotted as 3 μl drops. Fluorescent microspheres (Polysciences) were added to the myelin/PBS to allow later identification of the drops (Grandpre et al., Nature 403:439-444 (2000)). Lab-Tek® slides were then rinsed and coated with 10 μg/ml laminin (Gibco™).
Dorsal root ganglions (DRG's) from P3-4 Sprague Dawley rat pups were dissociated with 1 mg/ml collagenase type 1 (Worthington), triturated with fire-polished Pasteur pipettes pre-plated to enrich in neuronal cells and finally plated at 23,000 cells/well on the pre-coated Labtek culture slides. The culture medium was F12 containing 5% heat inactivated donor horse serum, 5% heat inactivated fetal bovine serum and 50 ng/ml mNGF and incubated at 37° C. and 5% CO2 for 6 hours.
Slides were fixed for 20 minutes with 4% paraformaldehyde containing 20% sucrose and stained for the neuronal marker anti beta-III-tubulin (Covance TUJ1) diluted 1:500. As secondary antibody anti-mouse Alexa Fluor® 594 (Molecular Probes) was diluted 1:300 and slides were coverslipped with Gel/Mount™ (Biømeda™). 5× digital images were acquired with OpenLab™ software and analyzed by using the MetaMorph® software for quantification of neurite outgrowth.

OM-gp + sNogoR344-Fc = biological target: T3, OM-gp + sNogoR344-Fc (Rattus norvegicus, UniProt Q99M75, A303T/C287S/C43R/E284G/T53A); test: ELISA: inhibition of OM-gp binding to sNogoR344-Fc
T3 construct: amino acid residues 26-344 of rat Nogo receptor-1; made in house; CHO (DG44) is described only for sNogoR310-Fc
T3 sequence (Q99M75 26-344 C43R/T53A/E284G/C287S/A303T): T1 sequence (Q99M75 26-344 C43R/T53A/E284G/C287S/A303T)
Experimental: as §1, §2, §3, §4

[5] = biological target: T4, panel of Nogo receptor-1 polypeptides (sNogoR310-Fc, sNogoR344-Fc, p-617, p-618, p-4, p-5) (Rattus norvegicus, UniProt Q99M75); test: Antibody specificity ELISA with a panel of Nogo receptor-1 polypeptides; format: binding
T4 construct: made in house
Text: To determine the specificity of the monoclonal and Fab-phage antibodies produced in Examples 1 and 2, we performed an ELISA using a panel of Nogo receptor-1 polypeptides. The panel consisted of sNogoR310-Fc (a fusion protein comprising amino acids 26-310 of rat Nogo receptor-1 and a rat Fc fragment), sNogoR344-Fc (see supra), polypeptide p-617 (SEQ ID NO: 1), polypeptide p-618 (a 19-amino acid polypeptide from the LRR7 region of rat Nogo receptor-1; FIG. 2; SEQ ID NO: 11) and polypeptides p-4 and p-5 (polypeptides from the LRR5 and LRRCT regions of Nogo receptor-1, respectively). Ovalbumin and BSA were used as controls.

[6] = tested on: NogoA, NogoB, NogoC, MAG and OM-gp binding to Nogo receptor-1; test: Soluble Nogo receptors block ligand binding to Nogo receptor-1

Molecule: C[C@H]1C[C@@H]2[C@H]([C@@H](O)C[C@@]3(C)[C@H]2CC[C@]3(O)C(=O)CO)[C@@]2(C)C=CC(=O)C=C12 [MP, methylprednisolone, reference compound]
- effect on neurite outgrowth on a myelin substrate [1]: no effect

Molecule: AAAFTGLTLLEQLDLSDNAQLR (Rattus) [tryptic digest peptide of sNgR310]
- peptide bound by 7E11 (7E11 [2]): bound

Molecule: DNAQLRVVDPTT (sequence also found in Rattus; listed as Homo Sapiens)
- peptide bound by 7E11 (7E11 [2]): bound

Molecule: LDLSDNAALRVVDPTT [Q117A]
- increase of EC50 relative to the original peptide (7E11 [3]): 30 fold

Molecule: LDLSDNAQLHVVDPTT [R119H]
- increase of EC50 relative to the original peptide (7E11 [3]): 25 fold

Molecule: LDLSDNAQLR (sequence also found in Rattus; listed as Homo Sapiens)
- peptide bound by 7E11 (7E11 [2]): bound

B1: 5B10: murine monoclonal anti-Nogo receptor-1 antibody, immunogen rat Nogo receptor-1 residues 110-125, ATCC PTA-4588 (antibody, V domains shown)
VH: LQXSGAEIVMPGTAVTMSCKASGYTFTDFWMHWVKQRPGQGLEWIGAIDPSDSYSRINQKFKGKATLTVDESSSTAYMQLSSLTSEDSAVYYCARRITEAGAWFAYWGQGTTVT
VL: MKLPVRLLVLMFWIPASSSDVVMTQTPLSLPVSLGDQASISCRSSQSLVHSNGYTYLHWYLQRPGQSPKLLIYKVSNRFSGVPDRFSGSGSGTDFTLKISRVDAEDLGVYFCSQSTHVPYTFGGGTKLEIKRADAAPTVSISHH
modifications: not fully specified; 5B10 heavy chain; 5B10 light chain
- inhibition of binding of MAG to sNogoR344-Fc (MAG + sNogoR344-Fc): inhibited
- inhibition of binding of Nogo66 to sNogoR344-Fc (Nogo66 + sNogoR344-Fc): inhibited
- protection of DRG neurons from myelin-mediated inhibition of neurite outgrowth [4]: protected
- inhibition of binding of OM-gp to sNogoR344-Fc (OM-gp + sNogoR344-Fc): inhibited
- binding to polypeptide p-617 (SEQ ID NO: 1) [5]: specifically bound

B2: sNogoR344: soluble Nogo receptor-1 polypeptide, residues 26-344 of SEQ ID NOs: 6 and 8 or 27-344 of SEQ ID NO: 8 (protein, listed as Homo sapiens)
chain: PCPGACVCYNEPKVTTSCPQQGLQAVPVGIPAASQRIFLHGNRISHVPAASFRACRNLTILWLHSNVLARIDAAAFTGLALLEQLDLSDNAQLRSVDPATFHGLGRLHTLHLDRCGLQELGPGLFRGLAALQYLYLQDNALQALPDDTFRDLGNLTHLFLHGNRISSVPERAFRGLHSLDRLLLHQNRVAHVHPHAFRDLGRLMTLYLFANNLSALPTEALAPLRALQYLRLNDNPWVCDCRARPLWAWLQKFRGSSSEVPCSLPQRLAGRDLKRLAANDLQGCAVATGPYHPIWTGRATDEEPLGLPKCCQPDAADKA
- block of binding of NogoA, NogoB, NogoC, MAG and OM-gp to Nogo receptor-1 [6]: block
